According to US20240342138A1, “MICROTUBULE TARGETING AGENTS” (BPGbio, Inc., priority 2023, published 2024):
Like-named read-outs stand apart in the source and are kept apart here.

Assay: Biodistribution after oral administration
Format: in vivo, Sprague-Dawley Rats
Conditions: 75 mg/kg oral; for concentration at 8 h / Kp at 8 h / concentration at 0.25 h / Kp at 0.25 h / concentration at 2 h / Kp at 2 h: male, Sprague-Dawley, rat; for concentration at 8 h / concentration at 0.25 h / concentration at 2 h: read-out: Mean plasma/tissue concentration; for Kp at 8 h / Kp at 0.25 h / Kp at 2 h: read-out: Ratio (tissue to plasma)
Protocol: Male Sprague-Dawley Rats (total of 6 animals) 6 to 8 weeks of age (210-227 g) was used in this biodistribution study. Compound 1 was dosed at 75 mg/kg to all animals through oral route of administration at a 10 ml/kg dose volume. Compound 1 formulation was freshly prepared in Tween-80+0.5% methyl cellulose and maintained at room temperature until dosing. Dose was administered in all animals under fasted conditions. […] Heart, lung, liver, kidney, stomach, small intestine, large intestine, skeletal muscle, brain, spleen, pancreas and adipose were harvested while blood was processed to plasma for bioanalytical quantification of Compound 1.
Compound 1 bioanalytical assay was developed and validated using the SCIEX 6500 LC-MS/MS. A mobile phase (isocratic flow) comprised of Acetonitrile and 0.2% formic acid in MilliQ water in a Atlantis dC18-HPLC column (50×4.6 mm, […]), with a flow rate of 0.9 mL/min and a run time of 2.20 min. Mass transition (m/z) of 375.040 and 188.100 was used for detection of Compound 1 at an LLOQ of 2.14 ng/mL.

With `COc1ccccc1-c1nc(CNC(=O)c2ccccc2OC(F)F)n[nH]1` [Compound 1, 2-(difluoromethoxy)-N-[[5-(2-methoxyphenyl)-1H-1,2,4-triazol-3-yl]methyl]benzamide] the Tissue distribution was “Drug distribution was revealed across all tissues”, the “Blood brain barrier penetration” value (8 hours) was “brain barrier penetration observed” and the “Percentage (plasma to tissue)” value (Adipose tissue, 0.25 hours) was 1.94%. For the same molecule, the “Percentage (plasma to tissue)” value (Adipose tissue, 2 hours) was 2.36%, the “Percentage (plasma to tissue)” value (Adipose tissue, 8 hours) was 3.06% and the “Percentage (plasma to tissue)” value (Brain, 0.25 hours) was 0.79%. For the same molecule, the “Percentage (plasma to tissue)” value (Brain, 2 hours) was 0.57%, the “Percentage (plasma to tissue)” value (Brain, 8 hours) was 2.18% and the “Percentage (plasma to tissue)” value (Heart, 0.25 hours) was 1.89%. For the same molecule, the “Percentage (plasma to tissue)” value (Heart, 2 hours) was 2.59%, the “Percentage (plasma to tissue)” value (Heart, 8 hours) was 4.19% and the “Percentage (plasma to tissue)” value (Kidney, 0.25 hours) was 2.99%. For the same molecule, the “Percentage (plasma to tissue)” value (Kidney, 2 hours) was 2.92%, the “Percentage (plasma to tissue)” value (Kidney, 8 hours) was 4.16% and the “Percentage (plasma to tissue)” value (Liver, 0.25 hours) was 12.5%. The “Percentage (plasma to tissue)” value (Liver, 2 hours) was 10.6%, the “Percentage (plasma to tissue)” value (Liver, 8 hours) was 16.5% and the “Percentage (plasma to tissue)” value (Lungs, 0.25 hours) was 3.91%. The “Percentage (plasma to tissue)” value (Lungs, 2 hours) was 2.93%, the “Percentage (plasma to tissue)” value (Lungs, 8 hours) was 5.06% and the “Percentage (plasma to tissue)” value (Pancreas, 0.25 hours) was 3.42%. The “Percentage (plasma to tissue)” value (Pancreas, 2 hours) was 3.18%, the “Percentage (plasma to tissue)” value (Pancreas, 8 hours) was 7.60% and the “Percentage (plasma to tissue)” value (Plasma, 0.25 hours) was 3.59%. The “Percentage (plasma to tissue)” value (Plasma, 2 hours) was 2.29%, the “Percentage (plasma to tissue)” value (Plasma, 8 hours) was 5.37% and the “Percentage (plasma to tissue)” value (Skeletal Muscle, 0.25 hours) was 0.77%. The “Percentage (plasma to tissue)” value (Skeletal Muscle, 2 hours) was 0.85%, the “Percentage (plasma to tissue)” value (Skeletal Muscle, 8 hours) was 20.5% and the “Percentage (plasma to tissue)” value (Small intestine, 0.25 hours) was 21.9%. The “Percentage (plasma to tissue)” value (Small intestine, 2 hours) was 21.9%, the “Percentage (plasma to tissue)” value (Small intestine, 8 hours) was 4.82% and the “Percentage (plasma to tissue)” value (Spleen, 0.25 hours) was 4.26%. The “Percentage (plasma to tissue)” value (Spleen, 2 hours) was 1.68%, the “Percentage (plasma to tissue)” value (Spleen, 8 hours) was 7.84% and the “Percentage (plasma to tissue)” value (Stomach, 0.25 hours) was 42.7%. The “Percentage (plasma to tissue)” value (Stomach, 2 hours) was 48.1%, the “Percentage (plasma to tissue)” value (Stomach, 8 hours) was 18.8% and the concentration at 8 h (lung, Lungs, 8 hours) was 78.2 ng/g. It also gave a Kp at 8 h (lung, Lungs, 8 hours) of 0.94, a concentration at 0.25 h (Adipose tissue, 0.25 hours) of 1530 ng/g and a Kp at 0.25 h (Adipose tissue, 0.25 hours) of 0.54. The concentration at 2 h (Adipose tissue, 2 hours) was 2030 ng/g, the Kp at 2 h (Adipose tissue, 2 hours) was 1.03 and the concentration at 8 h (Adipose tissue, 8 hours) was 47.2 ng/g. The Kp at 8 h (Adipose tissue, 8 hours) was 0.57, the concentration at 0.25 h (Brain, 0.25 hours) was 624 ng/g and the Kp at 0.25 h (Brain, 0.25 hours) was 0.22. It also gave a concentration at 2 h (Brain, 2 hours) of 494 ng/g, a Kp at 2 h (Brain, 2 hours) of 0.25 and a concentration at 8 h (Brain, 8 hours) of 33.6 ng/g. It also gave a Kp at 8 h (Brain, 8 hours) of 0.4, a concentration at 0.25 h (Heart, 0.25 hours) of 1490 ng/g and a Kp at 0.25 h (Heart, 0.25 hours) of 0.53. The concentration at 2 h (Heart, 2 hours) was 2230 ng/g, the Kp at 2 h (Heart, 2 hours) was 1.13 and the concentration at 8 h (Heart, 8 hours) was 64.8 ng/g. It also gave a Kp at 8 h (Heart, 8 hours) of 0.78, a concentration at 0.25 h (Kidney, 0.25 hours) of 2360 ng/g and a Kp at 0.25 h (Kidney, 0.25 hours) of 0.83. For the same molecule, the concentration at 2 h (Kidney, 2 hours) was 2520 ng/g, the Kp at 2 h (Kidney, 2 hours) was 1.27 and the concentration at 8 h (Kidney, 8 hours) was 64.2 ng/g. The Kp at 8 h (Kidney, 8 hours) was 0.77, the concentration at 0.25 h (Liver, 0.25 hours) was 9890 ng/g and the Kp at 0.25 h (Liver, 0.25 hours) was 3.49. For the same molecule, the concentration at 2 h (Liver, 2 hours) was 9140 ng/g, the Kp at 2 h (Liver, 2 hours) was 4.63 and the concentration at 8 h (Liver, 8 hours) was 255 ng/g. It also gave a Kp at 8 h (Liver, 8 hours) of 3.06, a concentration at 0.25 h (Lungs, 0.25 hours) of 3090 ng/g and a Kp at 0.25 h (Lungs, 0.25 hours) of 1.09. It also gave a concentration at 2 h (Lungs, 2 hours) of 2520 ng/g, a Kp at 2 h (Lungs, 2 hours) of 1.28 and a concentration at 0.25 h (Pancreas, 0.25 hours) of 2700 ng/g. The Kp at 0.25 h (Pancreas, 0.25 hours) was 0.95, the concentration at 2 h (Pancreas, 2 hours) was 2740 ng/g and the Kp at 2 h (Pancreas, 2 hours) was 1.39. It also gave a concentration at 8 h (Pancreas, 8 hours) of 117 ng/g, a Kp at 8 h (Pancreas, 8 hours) of 1.41 and a concentration at 0.25 h (Plasma, 0.25 hours) of 2830 ng/mL. For the same molecule, the concentration at 2 h (Plasma, 2 hours) was 1980 ng/mL, the concentration at 8 h (Plasma, 8 hours) was 83.1 ng/mL and the concentration at 0.25 h (Skeletal Muscle, 0.25 hours) was 607 ng/g. For the same molecule, the Kp at 0.25 h (Skeletal Muscle, 0.25 hours) was 0.21, the concentration at 2 h (Skeletal Muscle, 2 hours) was 734 ng/g and the Kp at 2 h (Skeletal Muscle, 2 hours) was 0.37. The concentration at 8 h (Skeletal Muscle, 8 hours) was 316 ng/g, the Kp at 8 h (Skeletal Muscle, 8 hours) was 3.81 and the concentration at 0.25 h (Small intestine, 0.25 hours) was 16700 ng/g. It also gave a Kp at 0.25 h (Small intestine, 0.25 hours) of 5.9, a concentration at 2 h (Small intestine, 2 hours) of 18800 ng/g and a Kp at 2 h (Small intestine, 2 hours) of 9.53. For the same molecule, the concentration at 8 h (Small intestine, 8 hours) was 74.4 ng/g, the Kp at 8 h (Small intestine, 8 hours) was 0.9 and the concentration at 0.25 h (Spleen, 0.25 hours) was 3360 ng/g. The Kp at 0.25 h (Spleen, 0.25 hours) was 1.19, the concentration at 2 h (Spleen, 2 hours) was 1450 ng/g and the Kp at 2 h (Spleen, 2 hours) was 0.73. For the same molecule, the concentration at 8 h (Spleen, 8 hours) was 121 ng/g, the Kp at 8 h (Spleen, 8 hours) was 1.46 and the concentration at 0.25 h (Stomach, 0.25 hours) was 33700 ng/g. It also gave a Kp at 0.25 h (Stomach, 0.25 hours) of 11.9, a concentration at 2 h (Stomach, 2 hours) of 41500 ng/g and a Kp at 2 h (Stomach, 2 hours) of 21. It also gave a concentration at 8 h (Stomach, 8 hours) of 290 ng/g and a Kp at 8 h (Stomach, 8 hours) of 3.5.
